Experimental data: US7498303B2, “GNRH analogues for treatment of urinary incontinence” (priority 2000, dated 2009)
Where “and” joins values, the source holds several entries; their conditions need not be identical. Equal entries are not always repeated. Structures can show the parent of a compound that is named as a salt.

Tests used:
[1] = test system: urinary incontinence after spaying; assay: GnRH analogue slow release implant in bitches with urinary incontinence after spaying; format: in vivo, dog; details: slow release s.c. implant
Procedure: Additionally, for a limited period the dogs were treated with phenylpropanolamine in a dosage of 1.5 mg/kg BW tid orally.
After discontinuation of the shortacting phenylpropanolamine 8 bitches remained continent. Their continence was therefore achieved solely by the treatment with the composition as described in the present invention. Seven out of fifteen dogs seemed to be much happier and in none of the dogs did the general condition deteriorate. […] The respective results are shown in more detail in table 1.

[2] = test system: urge incontinence and hotflushes; assay: Perimenopausal person with urge incontinence and hot flushes; format: in vivo, human; details: 3.75 mg; one perimenopausal person
[3] = test system: urinary incontinence of the bitch; details: 1.5 mg/kg BW p.o., given every 8 hours; cited from earlier work
[4] = test system: stress incontinence; assay: Menopausal person with stress incontinence, 24 hour pad test; format: in vivo, human; details: single dose of 3.75 mg, one person
Procedure: A second menopausal person, suffering from stress incontinence for at least 6 years, was treated with a single dose of 3.75 mg of leuprolide acetate. 24 hour pad tests conducted prior to treatment with the drug indicated they lost between 10 and 130 ml of urine on a daily basis due to their incontinence.

[5] = test system: urinary incontinence; assay: Double-blind, placebo-control study in client owned dogs suffering from urinary incontinence; format: in vivo, dog
Procedure: In a second ongoing study, 16 client owned dogs suffering from urinary incontinence were enrolled in a double-blind, placebo-control study. In the initial phase of the study, dogs were randomly assigned to treatment with a long-acting GnRH analogue (leuprolide acetate) or placebo (dog owners and the investigators were blinded to treatment) along with a short course of therapy with phenylpropanolamine. 5 weeks after treatment with drug or placebo, dogs were evaluated and, if not fully continent, treated with a long-acting GnRH analogue (leuprolide acetate) in an open label phase of the study. To date only 1 of 10 dogs treated with placebo became continent vs. […] treated with drug during the blinded portion of the study. Overall, the results generated thus far indicate […] dogs treated with the long-acting GnRH analogue became continent and […] improved after discontinuation of the short acting phenylpropanolamine. Only 1 dog of 15 treated with the GnRH analogue was considered not to have improved following treatment with the drug.

[6] = test system: excessive growth of the undercoat (baby coat) due to spaying; assay: Excessive growth of the undercoat due to spaying in cocker spaniel bitches; format: in vivo, dog; details: 5 mg slow release s.c. implant
Procedure: Two cocker spaniel bitches belonging to the same owner were showing excessive growth of the undercoat due to spaying. […] Both dogs were first clinically examined and thereafter a GnRH analogue (Deslorelin) in a dosage of 5 mg, in slow release form, was subcutaneously implanted between the shoulder blades.

[7] = 6 mg, without PPA, one dog per line
[8] = 12 mg, with PPA, one dog per line
[9] = 12 mg, without PPA, one dog per line
[10] = 11,25 mg, without PPA, one dog per line, listed as Leuprorelin acetate
[11] = 6,3 mg, without PPA, one dog per line

Triptorelin acetate [Triptorelinacetate]
Duration of effect after treatment ([1]; 3,75 mg, footnote: dose too low, one dog): 0 | Period of improvement of both symptoms [2]: about 4 weeks | Urge incontinence and hotflushes, patient report [2]: improved considerably

CN[C@@H](C)[C@H](O)c1ccccc1 [ephedrinhydrochloride]
Continence achieved [3]: 74%

Deslorelin acetate [Deslorelinacetate]
Side effects ([1]; 6 mg, one dog per line): More playfull | Duration of effect after treatment ([1]; 6 mg, with PPA, one dog): >336 days | Effect on incontinence ([1]; 6 mg, with PPA, one dog per line): 100% | Duration of effect after treatment [1, 7]: >47 days and >344 days and >340 days | Effect on incontinence [1, 7]: 100% | Duration of effect after treatment [1, 8]: 135 days and >318 days and >225 days | Effect on incontinence [1, 8]: 80% and 100% (2×) | Duration of effect after treatment [1, 9]: 64 days and >64 days and >209 days | Effect on incontinence [1, 9]: 100%

CCNC(=O)[C@@H]1CCCN1C(=O)[C@H](CCCNC(=N)N)NC(=O)[C@H](CC(C)C)NC(=O)[C@@H](CC(C)C)NC(=O)[C@H](Cc1ccc(O)cc1)NC(=O)[C@H](CO)NC(=O)[C@H](Cc1c[nH]c2ccccc12)NC(=O)[C@H](Cc1c[nH]cn1)NC(=O)[C@@H]1CCC(=O)N1 [Leuprorelinacetate, leuprolide acetate]
Daily urine loss, pad test ([4]; 2 weeks after treatment, before treatment 10 to 130 ml daily): 1 mL | Patient's judgement of the effects of the therapy [4]: very satisfied | Dogs that became continent during the blinded portion of the study ([5]; long-acting, with short course of phenylpropanolamine, evaluated 5 weeks after treatment, placebo 1 of 10): 3 to 8 dogs | Dogs considered not to have improved following treatment ([5]; of 15 treated): 1 dog | Dogs that became continent after discontinuation of phenylpropanolamine (overall) ([5]; of 15 treated, blinded and open label phases, ongoing study): 6 dogs | Remaining dogs that improved after discontinuation of phenylpropanolamine ([5]; of 15 treated, ongoing study): 9 dogs | Duration of effect after treatment ([1]; 11,25 mg, with PPA, one dog): >64 days | Effect on incontinence ([1]; 11,25 mg, with PPA, one dog): 100% | Duration of effect after treatment ([1]; 11,25 mg, without PPA, one dog per line): 0 days | Duration of effect after treatment [1, 10]: >14 days | Effect on incontinence [1, 10]: 100%

CC(N)C(O)c1ccccc1 (centres unmarked) [phenylpropanolamine]
Continence achieved [3]: 74%

Buserelin acetate [Buserelinacetate]
Duration of effect after treatment [1, 11]: 44 days and 83 days | Effect on incontinence [1, 11]: 100%

CCNC(=O)[C@@H]1CCCN1C(=O)[C@H](CCCN=C(N)N)NC(=O)[C@H](CC(C)C)NC(=O)[C@@H](Cc1c[nH]c2ccccc12)NC(=O)[C@H](Cc1ccc(O)cc1)NC(=O)[C@H](CO)NC(=O)[C@H](Cc1c[nH]c2ccccc12)NC(=O)[C@H](Cc1cnc[nH]1)NC(=O)[C@@H]1CCC(=O)N1 [Deslorelin]
Coat quality ([6]; 5 weeks after the injection, both of two dogs): obvious amelioration of the coat quality | Signs of baby coat ([6]; 21 weeks after injection, two dogs): no signes of “baby coat” were apparent anymore
